Each structure is given as a SMILES string. Where “and” joins values, the source holds several entries; their conditions need not be identical. Identical values can stand only once. Like-named read-outs stand apart in the source and are kept apart here.

One assay has as its target T1, recombinant hMAO-A (Homo sapiens, UniProt P21397).
T1 construct: purchased Sigma-Aldrich
T1 sequence (P21397 1-527): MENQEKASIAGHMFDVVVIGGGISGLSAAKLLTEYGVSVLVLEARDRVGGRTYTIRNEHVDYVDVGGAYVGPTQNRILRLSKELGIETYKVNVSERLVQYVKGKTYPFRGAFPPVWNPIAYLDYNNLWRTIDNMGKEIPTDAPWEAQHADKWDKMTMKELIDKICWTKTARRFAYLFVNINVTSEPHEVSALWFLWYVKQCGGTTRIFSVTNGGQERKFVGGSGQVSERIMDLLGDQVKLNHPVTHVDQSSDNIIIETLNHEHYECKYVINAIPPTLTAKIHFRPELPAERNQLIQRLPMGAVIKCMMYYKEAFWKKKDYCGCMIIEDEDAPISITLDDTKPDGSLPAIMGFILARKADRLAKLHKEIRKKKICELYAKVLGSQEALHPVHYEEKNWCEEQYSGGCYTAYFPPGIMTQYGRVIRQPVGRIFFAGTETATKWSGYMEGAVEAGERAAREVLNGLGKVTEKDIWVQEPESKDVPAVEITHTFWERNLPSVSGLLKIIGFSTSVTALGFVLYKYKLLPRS
The assay is described as follows: MAO-A inhibition assay (kynuramine substrate). It counts as biochemical. Conditions: for remaining activity at 1 µM: read-out: Residual Activity (%) MAO-A (1.0 µM); for IC50: mean ± standard error of duplicates, reference compounds after 30 min preincubation with enzyme. As for the experimental part:
Recombinant hMAO-A and hMAO-B activities were assayed while using kynuramine (0.06 mM) and benzylamine (0.3 mM) as substrates, respectively, as described previously. […] AChE activity was measured using Type VI-S from Electrophorus electricus in the presence of 0.5 mM 5,5’-dithiobis(2-nitrobenzoic acid) and 0.5 mM acetylthiocholine iodide, as described previously. Enzymes and chemicals were purchased from Sigma–Aldrich (St. Louis, MO, USA).
(§1) AChE inhibitory activities were also determined, except at a concentration of 10 µM. […] Kinetic experiments were carried out at five substrate and three inhibitor concentrations.

Assay [1] concerns the target T2, MAO-B (Homo sapiens, UniProt P27338).
T2 construct: purchased Sigma-Aldrich
T2 sequence (P27338 1-520): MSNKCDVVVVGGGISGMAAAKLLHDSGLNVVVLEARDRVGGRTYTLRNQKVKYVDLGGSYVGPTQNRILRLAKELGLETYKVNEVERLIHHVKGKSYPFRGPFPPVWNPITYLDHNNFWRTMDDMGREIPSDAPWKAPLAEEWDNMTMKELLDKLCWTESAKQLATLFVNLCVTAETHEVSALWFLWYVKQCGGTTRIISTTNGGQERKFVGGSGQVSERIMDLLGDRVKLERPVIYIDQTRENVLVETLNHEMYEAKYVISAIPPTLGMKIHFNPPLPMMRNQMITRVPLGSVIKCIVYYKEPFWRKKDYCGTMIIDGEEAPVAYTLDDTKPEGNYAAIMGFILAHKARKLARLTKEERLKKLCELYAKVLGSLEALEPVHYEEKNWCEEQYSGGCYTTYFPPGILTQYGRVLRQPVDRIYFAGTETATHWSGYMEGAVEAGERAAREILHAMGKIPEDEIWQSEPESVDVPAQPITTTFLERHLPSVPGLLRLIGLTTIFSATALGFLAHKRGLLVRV
The assay is described as follows: biochemical. The note with it: for SI (selectivity index, ratio of IC50 MAO-A to MAO-B): MAO-A vs. MAO-B IC50 ratio; for IC50: mean ± standard error of duplicates, reference compounds after 30 min preincubation with enzyme, read-out: IC50 (µM) MAO-B; for remaining activity at 1 µM: read-out: Residual Activity (%) MAO-B (1.0 µM). As for the experimental part: Recombinant hMAO-A and hMAO-B activities were assayed while using kynuramine (0.06 mM) and benzylamine (0.3 mM) as substrates, respectively, as described previously. […] AChE activity was measured using Type VI-S from Electrophorus electricus in the presence of 0.5 mM 5,5’-dithiobis(2-nitrobenzoic acid) and 0.5 mM acetylthiocholine iodide, as described previously. Enzymes and chemicals were purchased from Sigma–Aldrich (St. Louis, MO, USA). […]

Assay [2] addresses T3, AChE (Type VI-S from Electrophorus electricus) (Electrophorus electricus, UniProt O42275).
T3 construct: purchased Sigma-Aldrich Type VI-S
The assay is described as follows: AChE inhibition assay (DTNB / acetylthiocholine iodide). It counts as biochemical. Conditions: for remaining activity at 10 µM / Residual Activity (%) AChE (10 µM): compound at 10 µM, mean ± standard error of duplicate experiments; for remaining activity at 10 µM: read-out: Residual Activity (%) AChE (10 µM). As to the method:
AChE activity was measured using Type VI-S from Electrophorus electricus in the presence of 0.5 mM 5,5’-dithiobis(2-nitrobenzoic acid) and 0.5 mM acetylthiocholine iodide, as described previously. Enzymes and chemicals were purchased from Sigma–Aldrich (St. Louis, MO, USA).
Kinetic experiments were carried out at five substrate and three inhibitor concentrations.

For assay [3], the target named is T2, MAO-B. As to the kind of experiment: Kinetics of MAO-B inhibition (Lineweaver-Burk and secondary plots). It counts as biochemical. The note with it: for Mode of MAO-B inhibition: Lineweaver-Burk plots; for Ki: competitive inhibition, secondary plots of slopes vs. inhibitor concentration. As for the experimental part:
as §1

The target in assay [4] is T2, MAO-B. As to the kind of experiment: Reversibility of MAO-B inhibition by dialysis. It counts as biochemical. Conditions: for Reversibility of MAO-B inhibition: dialysis method. The source says:
Relative activities of undialyzed (AU) and dialyzed (AD) samples were used to determine the reversibilities.

Assay [5] deals with T2, MAO-B. Conditions: read-out: IC50 MAO-B of earlier chalcone derivative; cited from earlier work.
Where [6] appears, read: compound at 1.0 µM, mean ± standard error of duplicate experiments.

T3 sequence (O42275 24-633): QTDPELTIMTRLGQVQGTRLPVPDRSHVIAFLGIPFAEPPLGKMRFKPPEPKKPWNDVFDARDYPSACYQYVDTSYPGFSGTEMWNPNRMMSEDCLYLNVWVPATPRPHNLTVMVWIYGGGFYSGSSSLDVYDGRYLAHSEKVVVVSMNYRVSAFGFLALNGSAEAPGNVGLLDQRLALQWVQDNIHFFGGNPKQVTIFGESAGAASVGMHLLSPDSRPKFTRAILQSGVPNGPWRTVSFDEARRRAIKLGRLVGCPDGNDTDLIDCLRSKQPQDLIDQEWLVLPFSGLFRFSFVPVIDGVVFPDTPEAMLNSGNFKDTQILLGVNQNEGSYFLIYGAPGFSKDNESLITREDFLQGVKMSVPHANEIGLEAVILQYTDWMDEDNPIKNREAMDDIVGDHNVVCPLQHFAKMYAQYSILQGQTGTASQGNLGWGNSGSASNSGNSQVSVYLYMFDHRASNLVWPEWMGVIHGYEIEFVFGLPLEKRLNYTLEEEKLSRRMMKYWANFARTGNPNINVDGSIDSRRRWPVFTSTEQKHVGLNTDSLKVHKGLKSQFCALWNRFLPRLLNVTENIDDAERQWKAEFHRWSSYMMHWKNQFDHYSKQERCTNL

What is called IC50 is the midpoint of a concentration-inhibition curve. For orientation: Ki means the dissociation constant of the complex between target and ligand, obtained from inhibition or displacement. A high value points to a looser hold on the target. `O=C(/C=C/c1ccc(ON=C2CCCCC2)cc1)c1ccc(F)cc1` [COE-6]: the remaining activity at 1 µM on recombinant hMAO-A (setting [6]) was found to be 76.8 ± 3.98%. For the same molecule, on recombinant hMAO-A, the IC50 was 4 ± 0.021 µM. At MAO-B [1], the “MAO-B potency relative to clorgyline (times more potent)” value is 105.6 times and 105 times; the “MAO-B potency relative to lazabemide (times more potent)” value is 2.33 times and 2.3 times; the “MAO-B potency relative to pargyline (times more potent)” value came to 1.1 times; the “SI (selectivity index, ratio of IC50 MAO-A to MAO-B)” value is 222.2. On MAO-B [1], the IC50 is 0.02 µM and 0.018 µM; the remaining activity at 1 µM is -1.06 ± 1.84%. Besides, in assay [2], the IC50 was > 40000 nM and the remaining activity at 10 µM turned out to be 79.4 ± 3.97%. Further, on MAO-B [3], the “Mode of MAO-B inhibition” value was “competitively inhibited” and affinity was put at a Ki of 7.5 nM. The “Reversibility of MAO-B inhibition” value at MAO-B [4] was “reversible inhibitors”. In addition, on MAO-B [4] (~2 × IC50 of inhibitor, 30 min preincubation, after dialysis), the “Relative MAO-B activity, dialyzed (AD)” value was 81.1%. On MAO-B [4] (~2 × IC50 of inhibitor, 30 min preincubation, undialyzed), the “Relative MAO-B activity, undialyzed (AU)” value is 19.7%.

As to `COc1cccc(/C=C/C(=O)c2ccc(O/N=C(\C)c3cccs3)cc2)c1` [COE-13], on recombinant hMAO-A (compound at 1.0 µM, mean ± standard error of duplicate experiments, 1 µM), the “Residual Activity (%) MAO-A (1.0 µM)” value came out at 46.2 ± 1.07%. At recombinant hMAO-A (setting [6]), the remaining activity at 1 µM was < 50%. In addition, the IC50 on recombinant hMAO-A is 0.88 ± 0.03 µM. Also, at recombinant hMAO-A (ratio of IC50 values), the “MAO-A potency relative to pargyline (times more potent)” value amounted to 2.8 times and the “MAO-A potency relative to toloxatone (times more potent)” value turned out to be 1.1 times. Also, at MAO-B [1], the “SI (selectivity index, ratio of IC50 MAO-A to MAO-B)” value amounted to 6.8; the IC50 worked out at 0.13 ± 0.0069 µM; the remaining activity at 1 µM worked out at 31.9 ± 9.75%. In assay [2], the 50% inhibitory concentration (IC50) was > 40000 nM and the remaining activity at 10 µM stood at 57.6 ± 1.96%.

On to `COC(=O)c1ccc(O/N=C(/C=C/c2ccc(OC)cc2)c2ccc(OC)cc2)cc1` [COE-18], for which the remaining activity at 1 µM at recombinant hMAO-A (setting [6]) was determined as 88.1 ± 0.99%; at MAO-B [1] it was 33.3 ± 0.52%. In addition, the values for the IC50 (at recombinant hMAO-A; on MAO-B [1]; in assay [2]) were > 10 µM, 0.85 ± 0.12 µM and 10600 ± 260 nM, respectively. In addition, on MAO-B [1], the “SI (selectivity index, ratio of IC50 MAO-A to MAO-B)” value is on record as >11.8. Further, in assay [2], the remaining activity at 10 µM is 58.3 ± 5.3%.

Regarding `Cc1ccc(/C=C/C(=O)c2ccc(O/N=C3\CCc4ccccc43)cc2)cc1` [COE-12], the remaining activity at 1 µM on recombinant hMAO-A (setting [6]) was 95.7 ± 2.02%; on MAO-B [1] (setting [6]), 40.5 ± 0.1%. The IC50 on recombinant hMAO-A is > 10 µM; on MAO-B [1], 0.27 ± 0.056 µM; in assay [2] it was > 40000 nM. At MAO-B [1], the “SI (selectivity index, ratio of IC50 MAO-A to MAO-B)” value is given as >37.0. In addition, in assay [2], the remaining activity at 10 µM worked out at 72 ± 1.95%.

Take `C/C(=N\Oc1ccc(/C=C/C(=O)c2ccccc2)cc1)c1ccc(F)cc1` [COE-5]: the remaining activity at 1 µM at recombinant hMAO-A (setting [6]) was determined as 95.1 ± 2.68%. On recombinant hMAO-A, the IC50 was > 10 µM. At MAO-B [1], the “SI (selectivity index, ratio of IC50 MAO-A to MAO-B)” value was >8.9; the IC50 came out at 1.12 ± 0.1 µM; the remaining activity at 1 µM stood at 57.5 ± 7.01%. Moreover, in assay [2], the 50% inhibitory concentration (IC50) is 7060 ± 1500 nM, the “Residual Activity (%) AChE (10 µM)” value is 46.5 ± 0.71% and the remaining activity at 10 µM was < 50%.

Consider `COc1ccc(/C=C/C(=N/Oc2ccc(/C=C/C(=O)c3ccc(F)cc3)cc2)c2ccc(OC)cc2)cc1` [COE-22], for which the remaining activity at 1 µM on recombinant hMAO-A (setting [6]) worked out at 81.8 ± 0.99%. On MAO-B [1], the IC50 came out at 0.028 ± 0.0042 µM and the remaining activity at 1 µM was determined as 5.47 ± 0.21%. The remaining activity at 10 µM in assay [2] was < 50%. Also, at MAO-B [3], the “Mode of MAO-B inhibition” value was “competitively inhibited” and affinity was put at a Ki of 10 nM. For the same molecule, the “Reversibility of MAO-B inhibition” value at MAO-B [4] is “reversible inhibitors”.

With `COc1ccc(/C=C/C(=N/Oc2ccc(C(C)=O)cc2)c2ccc(OC)cc2)cc1` [COE-17], the remaining activity at 1 µM at recombinant hMAO-A (setting [6]) came out at 80.9 ± 2.01%. On recombinant hMAO-A, the IC50 is > 10 µM. Further, at MAO-B [1], the “SI (selectivity index, ratio of IC50 MAO-A to MAO-B)” value is on record as >13.9; the IC50 stood at 0.72 ± 0.015 µM; the remaining activity at 1 µM worked out at 17.6 ± 2.77%. In assay [2], the IC50 was > 40000 nM and the remaining activity at 10 µM was determined as 80.3 ± 1.39%.

For `COc1cc(/C=C/C(=O)c2ccc(ON=C(c3ccccc3)c3ccccc3)cc2)cc(OC)c1OC` [COE-15], at recombinant hMAO-A (setting [6]), the remaining activity at 1 µM worked out at 95 ± 3.03%. In addition, the IC50 on recombinant hMAO-A was > 10 µM. Moreover, on MAO-B [1], the “SI (selectivity index, ratio of IC50 MAO-A to MAO-B)” value is listed as >10.5; the IC50 is 0.95 ± 0.029 µM; the remaining activity at 1 µM was 36.9 ± 9.49%. Besides, in assay [2], the IC50 was > 40000 nM and the remaining activity at 10 µM was 56.9 ± 1.4%.

With `CCO/C(C)=N/Oc1ccc(/C=C/C(=O)c2ccc(F)cc2)cc1` [L3, ethyl (1E)-N-{4-[(1E)-3-(4-fluorophenyl)-3-oxoprop-1-en-1-yl]phenoxy}ethanimidate], the IC50 at MAO-B [5] is 53 nM.

Regarding `COc1ccc(/C=C/C(=O)c2ccc(ON=C3CCCCC3)cc2)cc1` [COE-10], on recombinant hMAO-A (setting [6]), the remaining activity at 1 µM stood at 67.1 ± 2.02%. The IC50 at recombinant hMAO-A was > 10 µM. Moreover, at MAO-B [1], the “SI (selectivity index, ratio of IC50 MAO-A to MAO-B)” value is given as >47.6; the IC50 was determined as 0.21 ± 0.01 µM; the remaining activity at 1 µM was 21.6 ± 1.22%. In addition, in assay [2], the IC50 was determined as 9420 ± 31 nM, the “Residual Activity (%) AChE (10 µM)” value worked out at 47.6 ± 0.93% and the remaining activity at 10 µM was < 50%.

Values taken from publication PMC7288026, “Novel Class of Chalcone Oxime Ethers as Potent Monoamine Oxidase-B and Acetylcholinesterase Inhibitors” (Molecules, 2020).
